According to patent US11051515B2, “3-acyl-benzamides and their use as herbicides” (Bayer Aktiengesellschaft, priority 2017, dated 2021):

Key:
ABUTH [1] = assay: Pre-emergence action against ABUTH; format: in vivo, Abutilon theophrasti; details: pre-emergence, dosage 320 g/ha, scored visually after 3 weeks vs untreated controls
In short: (§1)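 Seeds sown in sandy loam in wood-fiber pots and covered with soil. Greenhouse growth; visual damage scored after 3 weeks versus untreated controls (100% = dead, 0% = like control).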

ECHCG [2] = assay: Pre-emergence action against ECHCG; format: in vivo, Echinochloa crus-galli; details: pre-emergence, dosage 320 g/ha, scored visually after 3 weeks vs untreated controls
In short: as §1

POLCO [3] = assay: Post-emergence action against POLCO; format: in vivo, Polygonum convolvulus; details: post-emergence, dosage 80 g/ha
Description: Seeds of monocotyledonous and dicotyledonous weed and crop plants are laid out in sandy loam soil in wood-fiber pots, covered with soil and cultivated in a greenhouse under good growth conditions. 2 to 3 weeks after sowing, the test plants are treated at the one-leaf stage. The compounds of the invention, formulated in the form of wettable powders (WP) or as emulsion concentrates (EC), are then sprayed onto the green parts of the plants in the form of an aqueous suspension or emulsion at a water application rate equating to […], with addition of 0.2% wetting agent. After the test plants have been left to stand in the greenhouse under optimal growth conditions for about 3 weeks, the action of the preparations is assessed visually in comparison to untreated controls (herbicidal action in percent (%): 100% activity=the plants have died, 0% activity=like control plants). […] At the same time, inventive compounds leave Gramineae crops such as barley, wheat, rye, millet/Sorghum, corn or rice virtually undamaged when applied post-emergence, even at high active ingredient dosages. In addition, some substances are also harmless to dicotyledonous crops such as soya, cotton, oilseed rape, sugar beet or potatoes. Some of the compounds according to the invention have high selectivity and are therefore suitable for controlling unwanted vegetation in agricultural crops by the post-emergence method. The data of Tables B18 to B34 below illustrate, in an exemplary manner, the […] herbicidal action of the compounds according to the invention, the herbicidal activity being stated in percent.

ALOMY = assay: Pre-emergence action against ALOMY; format: in vivo, Alopecurus myosuroides; details: dosage 320 g/ha, pre-emergence, scored visually after 3 weeks vs untreated controls, 100% = plants have died, 0% = like control plants
In short: as §1

ECHCG [4] = assay: Post-emergence action against ECHCG; format: in vivo, Echinochloa crus-galli; details: post-emergence, dosage 80 g/ha, visual assessment about 3 weeks after treatment vs untreated controls
In short: (§2)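 Weeds grown in sandy loam in greenhouse, treated at one-leaf stage (2–3 weeks after sowing) with WP or EC formulations sprayed as aqueous suspension/emulsion at 600 to […] water with 0.2% wetting agent. Visual rating after about 3 weeks versus untreated controls, as % herbicidal action (100% = plants dead, 0% = like control).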

VIOTR [5] = assay: Post-emergence action against VIOTR; format: in vivo, Viola tricolor; details: post-emergence, dosage 80 g/ha
In short: as §2

POLCO [6] = assay: Pre-emergence action against POLCO; format: in vivo, Polygonum convolvulus; details: Dosage 320 g/ha, pre-emergence
Excerpt: Seeds of monocotyledonous and dicotyledonous weed plants and crop plants are laid out in sandy loam soil in wood-fiber pots and covered with soil. The compounds of the invention, formulated in the form of wettable powders (WP) or as emulsion concentrates (EC), are then applied to the surface of the covering soil in the form of an aqueous suspension or emulsion at a water application rate equating to […], with addition of 0.2% wetting agent. After the treatment, the pots are placed in a greenhouse and kept under good growth conditions for the trial plants. The damage to the test plants is scored visually after a test period of 3 weeks by comparison with untreated controls (herbicidal activity in percent (%): 100% activity=the plants have died, 0% activity=like control plants).

PHBPU [7] = assay: Post-emergence action against PHBPU; format: in vivo, Pharbitis purpurea; details: post-emergence, dosage 80 g/ha
In short: as §2

MATIN [8] = assay: Post-emergence action against MATIN; format: in vivo, Matricaria inodora; details: post-emergence, dosage 80 g/ha, visual assessment about 3 weeks after treatment vs untreated controls
In short: as §2

STEME [9] = assay: Pre-emergence action against STEME; format: in vivo, Stellaria media; details: Dosage 320 g/ha, pre-emergence
In short: as §1

MATIN [10] = assay: Pre-emergence action against MATIN; format: in vivo, Matricaria inodora; details: Dosage 320 g/ha, pre-emergence
In short: as §1

ABUTH [11] = assay: Post-emergence action against ABUTH; format: in vivo, Abutilon theophrasti; details: post-emergence, dosage 80 g/ha, visual assessment about 3 weeks after treatment vs untreated controls
In short: as §2

SETVI [12] = assay: Post-emergence action against SETVI; format: in vivo, Setaria viridis; details: post-emergence, dosage 80 g/ha, visual assessment about 3 weeks after treatment vs untreated controls
In short: as §2

VERPE [13] = assay: Pre-emergence action against VERPE; format: in vivo, Veronica persica; details: Dosage 320 g/ha, pre-emergence
In short: as §1

AMARE [14] = assay: Pre-emergence action against AMARE; format: in vivo, Amaranthus retroflexus; details: pre-emergence, dosage 320 g/ha, scored visually after 3 weeks vs untreated controls
In short: as §1

AMARE [15] = assay: Post-emergence action against AMARE; format: in vivo, Amaranthus retroflexus; details: post-emergence, dosage 80 g/ha, visual assessment about 3 weeks after treatment vs untreated controls
In short: as §2

STEME [16] = assay: Post-emergence action against STEME; format: in vivo, Stellaria media; details: post-emergence, dosage 80 g/ha
In short: as §2

VIOTR [17] = assay: Pre-emergence action against VIOTR; format: in vivo, Viola tricolor; details: Dosage 320 g/ha, pre-emergence
In short: as §1

PHBPU [18] = assay: Pre-emergence action against PHBPU; format: in vivo, Pharbitis purpurea; details: Dosage 320 g/ha, pre-emergence
In short: as §1

CYPES [19] = assay: Post-emergence action against CYPES; format: in vivo, Cyperus esculentus; details: post-emergence, dosage 80 g/ha, visual assessment about 3 weeks after treatment vs untreated controls
In short: as §2

SETVI [20] = assay: Pre-emergence action against SETVI; format: in vivo, Setaria viridis; details: pre-emergence, dosage 320 g/ha, scored visually after 3 weeks vs untreated controls
In short: as §1

CYPES [21] = assay: Pre-emergence action against CYPES; format: in vivo, Cyperus esculentus; details: pre-emergence, dosage 320 g/ha, scored visually after 3 weeks vs untreated controls
In short: as §1

AVEFA = assay: Pre-emergence action against AVEFA; format: in vivo, Avena fatua; details: dosage 320 g/ha, scored visually after 3 weeks vs untreated controls
In short: as §1

VERPE [22] = assay: Post-emergence action against VERPE; format: in vivo, Veronica persica; details: dosage 80 g/ha
In short: as §2

SMILES | Pre-emergence action against ABUTH (herbicidal activity) (ABUTH [1]) [%] | Pre-emergence action against ECHCG (herbicidal activity) (ECHCG [2]) [%] | Post-emergence action against POLCO (POLCO [3]) | Pre-emergence action against ALOMY (herbicidal activity in percent) (ALOMY) [%] | Post-emergence action against ECHCG (herbicidal action in percent) (ECHCG [4]) [%] | Post-emergence action against VIOTR (VIOTR [5]) | Pre-emergence action against POLCO (POLCO [6]) [%] | Post-emergence action against PHBPU (PHBPU [7]) | Post-emergence action against MATIN (herbicidal action in percent) (MATIN [8]) [%] | Pre-emergence action against STEME (STEME [9]) [%] | Pre-emergence action against MATIN (MATIN [10]) [%] | Post-emergence action against ABUTH (herbicidal action in percent) (ABUTH [11]) [%] | Post-emergence action against SETVI (herbicidal action in percent) (SETVI [12]) [%] | Pre-emergence action against VERPE (VERPE [13]) [%] | Pre-emergence action against AMARE (herbicidal activity) (AMARE [14]) [%] | Post-emergence action against AMARE (herbicidal action in percent) (AMARE [15]) [%] | Post-emergence action against STEME (STEME [16]) | Pre-emergence action against VIOTR (VIOTR [17]) [%] | SETVI (Table B8, pre-emergence herbicidal activity) (SETVI [20]) [%] | Pre-emergence action against CYPES (herbicidal activity) (CYPES [21]) [%] | further results
CCn1nnnc1NC(=O)c1ccc(Cl)c(C(=O)C(C)C)c1Cl [2-280] | 100 | 100 | 80 | 100 | 90 | 90 | 80 | 100 | 90 | 90 | 100 | 90 | 90 | 90 | 100 | 100 | 100 |  |  |  | 
CCCn1nnnc1NC(=O)c1ccc(C(F)(F)F)c(C(C)=O)c1Br [3-195] | 100 | 100 | 90 | 80 | 90 | 90 |  | 90 | 90 | 90 | 100 |  | 90 | 100 | 100 |  | 90 | 100 | 100 | 90 | Pre-emergence action against PHBPU (PHBPU [18]): 90%; Post-emergence action against CYPES (herbicidal action in percent) (CYPES [19]): 80%; Pre-emergence action against AVEFA (herbicidal activity) (AVEFA): 90%
CCn1nnnc1NC(=O)c1ccc(C)c(C(C)=O)c1C [2-1] | 90 | 90 | 100 | 90 | 100 | 100 | 90 | 90 | 90 | 90 | 90 | 80 | 80 |  | 100 | 100 | 80 | 100 | 90 | 80 | 
CCCn1nnnc1NC(=O)c1ccc(C(F)(F)F)c(C(C)=O)c1OC [3-48] | 100 | 100 | 80 | 90 | 90 | 100 | 80 | 100 | 100 | 90 | 100 | 100 | 80 | 90 | 100 |  | 100 | 100 | 100 | 90 | Pre-emergence action against PHBPU (PHBPU [18]): 80%; Post-emergence action against CYPES (herbicidal action in percent) (CYPES [19]): 90%; Post-emergence action against VERPE (VERPE [22]): 80
CC(=O)c1c(C)ccc(C(=O)Nc2nnnn2C)c1C [1-1] |  |  |  |  |  |  |  |  |  |  |  |  |  |  |  |  |  |  |  |  | pest or weed control at 320 g/ha (ABUTH [1]; Abutilon theophrasti, 504 h, read-out: Pre-emergence action against ABUTH (herbicidal activity)): 90%; pest or weed control at 320 g/ha (VIOTR [17]; Viola tricolor, 504 h): 100%; pest or weed control at 320 g/ha (ECHCG [2]; Echinochloa crus-galli, 504 h, read-out: Pre-emergence action against ECHCG (herbicidal activity)): 90%; pest or weed control at 80 g/ha (POLCO [3]; Fallopia convolvulus, 504 h): 80%; pest or weed control at 320 g/ha (ALOMY; Alopecurus myosuroides, 504 h, read-out: Pre-emergence action against ALOMY (herbicidal activity in percent)): 80%; pest or weed control at 80 g/ha (ECHCG [4]; Echinochloa crus-galli, 504 h, read-out: Post-emergence action against ECHCG (herbicidal action in percent)): 100%; pest or weed control at 80 g/ha (VIOTR [5]; Viola tricolor, 504 h): 100%; pest or weed control at 320 g/ha (POLCO [6]; Fallopia convolvulus, 504 h): 80%; pest or weed control at 80 g/ha (PHBPU [7]; Ipomoea purpurea, 504 h): 90%; pest or weed control at 80 g/ha (MATIN [8]; Tripleurospermum inodorum, 504 h, read-out: Post-emergence action against MATIN (herbicidal action in percent)): 80%; pest or weed control at 320 g/ha (SETVI [20]; Setaria viridis, 504 h, read-out: SETVI (Table B8, pre-emergence herbicidal activity)): 90%; pest or weed control at 320 g/ha (STEME [9]; Stellaria media, 504 h): 90%; pest or weed control at 320 g/ha (MATIN [10]; Tripleurospermum inodorum, 504 h): 100%; pest or weed control at 80 g/ha (ABUTH [11]; Abutilon theophrasti, 504 h, read-out: Post-emergence action against ABUTH (herbicidal action in percent)): 100%; pest or weed control at 320 g/ha (AMARE [14]; Amaranthus retroflexus, 504 h, read-out: Pre-emergence action against AMARE (herbicidal activity)): 100%; pest or weed control at 80 g/ha (AMARE [15]; Amaranthus retroflexus, 504 h, read-out: Post-emergence action against AMARE (herbicidal action in percent)): 100%; pest or weed control at 80 g/ha (STEME [16]; Stellaria media, 504 h): 100%
